# Test results as given in publication PMC11359932 (Viruses, 2024).
# Where two headings read alike, the source gives them in different places.
# Assays:
# [1] = system: SARS-CoV PLpro; conditions: read-out: IC50 against SARS-CoV PLpro; cited from earlier work
# [2] = target: T1, SARS-CoV-2 PLpro (Severe acute respiratory syndrome coronavirus 2, UniProt P0DTD1); experiment: biochemical; conditions: for Fold increase of IC50 in presence of Tween-20: 0.01% Tween-20 versus none; for IC50: CIY substrate
# [3] = system: SARS-CoV-2 Omicron (B.1.1.529); experiment: microbe, parasite or virus in culture; format: cell-based
# [4] = target: T1, SARS-CoV-2 PLpro; experiment: Inhibition mechanism, Lineweaver-Burk plot with peptide-AMC substrate; format: biochemical; conditions: 40 nM PLpro
# [5] = target: T1, SARS-CoV-2 PLpro; experiment: Surface plasmon resonance binding to immobilized PLpro; conditions: SPR, buffer with Tween-20, 25 °C
# [6] = Cellular cytotoxicity (CCK-8 / WST assay); format: cell-based; conditions: African green monkey, Vero CCL81 cells; 48 h treatment
# [7] = system: SARS-CoV-2 WA1 strain; experiment: Antiviral immunofluorescence assay (IFA) in Vero-E6 cells, WA1 strain; format: cell-based; conditions: Severe acute respiratory syndrome coronavirus 2, Vero C1008, MOI 0.01, Vero-E6 cells
# [8] = system: SARS-CoV-2 WA1 strain; experiment: Antiviral plaque reduction assay (PRA) in Vero-E6 cells; conditions: read-out: EC50-PRA, MOI 0.01, Vero-E6 cells
# [9] = target: USP25 (Homo sapiens, UniProt Q9UHP3); experiment: USP25 selectivity FRET assay (CFP-ubiquitin-YFP substrate); format: biochemical; conditions: for SI (selectivity index): IC50-USP25/IC50-PLpro
# Sequence of USP25 (Q9UHP3 157-706): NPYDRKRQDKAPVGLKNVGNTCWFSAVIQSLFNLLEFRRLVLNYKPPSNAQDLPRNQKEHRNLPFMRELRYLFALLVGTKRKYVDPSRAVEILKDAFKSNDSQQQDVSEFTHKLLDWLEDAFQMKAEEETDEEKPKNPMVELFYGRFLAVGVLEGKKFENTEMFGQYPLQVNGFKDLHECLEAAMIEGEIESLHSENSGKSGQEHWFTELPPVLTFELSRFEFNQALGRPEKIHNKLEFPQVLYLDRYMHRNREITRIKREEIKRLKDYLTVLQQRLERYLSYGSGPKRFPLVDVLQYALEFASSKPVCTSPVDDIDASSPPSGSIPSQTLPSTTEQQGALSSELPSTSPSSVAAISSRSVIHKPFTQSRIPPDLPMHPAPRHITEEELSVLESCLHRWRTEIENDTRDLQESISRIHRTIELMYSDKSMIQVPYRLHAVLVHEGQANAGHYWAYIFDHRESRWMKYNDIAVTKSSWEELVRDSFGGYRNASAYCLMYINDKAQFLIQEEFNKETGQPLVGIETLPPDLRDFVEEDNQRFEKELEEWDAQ
# [10] = system: SARS-CoV-2; design: method as in earlier work; conditions: viral loads and survival rates; cited from earlier work
# [11] = IC50-PLpro-tw, with 0.01% Tween-20
structure (smiles),measurement,setting,value
CN1CCN(c2ccc([N+](=O)[O-])c3no[n+]([O-])c23)CC1 [NSC207895],Fold increase of IC50 in presence of Tween-20,[2],more than 5 fold
same,IC50,"[2]; IC50-PLpro, without Tween-20",0.9 µM
same,IC50,[2]; [11],5 µM
COC(=O)c1cc2c(n1S(=O)(=O)c1ccc(C)cc1)C(=O)C(=O)c1[nH]cc(C(=O)OCc3ccccc3)c1-2 [NSC679525],EC50,"[3]; Severe acute respiratory syndrome coronavirus 2, Vero C1008, read-out: EC50-Omi",5.42 µM
same,EC50,[3]; read-out: EC50-Omi,5.4 µM
same,Putative Mode of Action (mechanism of inhibition),[4],Non-competitive
same,Kd,[5],4.1 µM
same,CC50 at 48 h,[6],18.6 µM
same,IC50,"[2]; IC50, 5 Min Incubation, 5 min preincubation with the enzyme",16.8 µM
same,IC50,"[2]; IC50, 60 Min Incubation, 60 min preincubation with the enzyme",10.2 µM
same,IC50,"[2]; IC50-PLpro, without Tween-20",6 µM
same,IC50,[2]; [11],11 µM
same,EC50,[7],2.8 µM
same,EC50,[8],0.4 µM
same,IC50,"[9]; CFP-ubiquitin-YFP substrate, without Tween-20",41 µM
same,SI (selectivity index),[9],> 4.7
same,SI (selectivity index),[9]; listed as 679525,6.8
COC(=O)C1(C)Cc2cc(OC(C)=O)c(OC(C)=O)cc2N1 (stereo not shown) [NSC341956],Fold increase of IC50 in presence of Tween-20,[2],> 16 fold
same,IC50,"[2]; with 0.01% Tween-20, read-out: IC50-PLpro-tw",> 200 µM
same,IC50,"[2]; without Tween-20, read-out: IC50-PLpro",12.4 µM
CCn1ccc(-c2cc(-c3cnn(C)c3)cc([C@@H](C)NC(=O)c3cc(OCCN(C)C)ccc3C)c2)n1 [Jun12682],Efficacy in mouse model infected with SARS-CoV-2,[10],efficacy in reducing viral loads and enhancing survival rates
